Measurements reported in US20240246964A1 (Arbutus Biopharma Corporation, priority 2021, published 2024).

The compounds below were run against human PD-L1 (Homo sapiens (Human), UniProt Q9NZQ7) (assay: T cell activation luciferase reporter cell culture system (T Cell Activation Assay)). Conditions: luciferase reporter assay; PD-L1 aAPC/CHO-K1 cells with PD-1 effector Jurkat T cells.
Type: cell-based

Chain of human PD-L1 (Q9NZQ7 19-290): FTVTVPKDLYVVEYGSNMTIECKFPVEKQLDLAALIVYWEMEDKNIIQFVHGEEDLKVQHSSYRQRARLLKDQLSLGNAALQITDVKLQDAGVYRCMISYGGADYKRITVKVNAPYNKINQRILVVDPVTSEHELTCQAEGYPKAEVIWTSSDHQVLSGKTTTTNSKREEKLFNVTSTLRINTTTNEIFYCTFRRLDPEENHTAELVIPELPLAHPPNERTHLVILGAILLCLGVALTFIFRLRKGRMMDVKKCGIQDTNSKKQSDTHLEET

Structure (SMILES) | EC50
COc1cc(-c2nccc(-c3cccc(-c4ccc(CN5CC6(CNC(=O)C6)C5)c(OC)n4)c3Cl)c2Cl)cc2c1CN(CC1(C(=O)O)CC1)CC2 [Example 297, 1-((6-(3-Chloro-4-(2-chloro-3-(6-methoxy-5-((7-oxo-2,6-diazaspiro[3.4]octan-2-yl)methyl)pyridin-2-yl)phenyl)pyridin-2-yl)-8-methoxy-3,4-dihydroisoquinolin-2(1H)-yl)methyl)cyclopropane-1-carboxylic acid] | 422 nM
COCCNCc1ccc(-c2nccc(-c3cccc(-c4ccc(CNCCOC)c(OC)n4)c3C(F)(F)F)c2Cl)cc1OC [Example 614, N-((6-(3-(3-Chloro-2-(3-methoxy-4-(((2-methoxyethyl)amino)methyl)phenyl)pyridin-4-yl)-2-(trifluoromethyl)phenyl)-2-methoxypyridin-3-yl)methyl)-2-methoxyethan-1-amine] | ≥ 10000 nM
COc1cc(-c2nccc(-c3cccc(-c4ccc(CN5CC6(CNC(=O)C6)C5)c(OC)n4)c3C(F)(F)F)c2Cl)ccc1CN1CC2(CNC(=O)C2)C1 [Example 576, 2-((6-(3-(3-chloro-2-(3-methoxy-4-((7-oxo-2,6-diazaspiro[3.4]octan-2-yl)methyl)phenyl)pyridin-4-yl)-2-(trifluoromethyl)phenyl)-2-methoxypyridin-3-yl)methyl)-2,6-diazaspiro[3.4]octan-7-one] | ≥ 10000 nM
COc1cc(-c2nccc(-c3cccc(-c4ccc(CNCC(F)F)c(OC)n4)c3Cl)c2Cl)ccc1CNCC(F)F [Example 505, N-((6-(2-Chloro-3-(3-chloro-2-(4-(((2,2-difluoroethyl)amino)methyl)-3-methoxyphenyl)pyridin-4-yl)phenyl)-2-methoxypyridin-3-yl)methyl)-2,2-difluoroethan-1-amine] | ≥ 10000 nM
COc1cc(-c2nccc(-c3cccc(-c4ccc5c(CNC6CCN(C(C)=O)CC6)cn(C)c5n4)c3Cl)c2Cl)ccc1CNC1CCN(C(C)=O)CC1 [Example 246, 1-(4-((4-(4-(3-(3-(((1-acetylpiperidin-4-yl)amino)methyl)-1-methyl-1H-pyrrolo[2,3-b]pyridin-6-yl)-2-chlorophenyl)-3-chloropyridin-2-yl)-2-methoxybenzyl)amino)piperidin-1-yl)ethan-1-one] | 101 nM
COc1cc(-c2nccc(-c3cccc4c3CCC[C@@H]4Nc3nc(OC)c(CNC[C@@H]4CCC(=O)N4)cc3C(F)(F)F)c2Cl)ccc1CNC[C@@H]1CCC(=O)N1 [Example 710, (S)-5-((((6-(((S)-5-(3-Chloro-2-(3-methoxy-4-(((((S)-5-oxopyrrolidin-2-yl)methyl)amino)methyl)phenyl)pyridin-4-yl)-1,2,3,4-tetrahydronaphthalen-1-yl)amino)-2-methoxy-5-(trifluoromethyl)pyridin-3-yl)methyl)amino)methyl)pyrrolidin-2-one] | ≥ 10000 nM
COc1cc(-c2nccc(-c3cccc(-c4ccc(CN[C@H]5CC[C@@H](OC)CC5)c(OC)n4)c3Cl)c2Cl)ccc1CN[C@H]1CC[C@@H](OC)CC1 [Example 448, (1s,4s)-N-((6-(2-Chloro-3-(3-chloro-2-(3-methoxy-4-((((1s,4s)-4-methoxycyclohexyl)amino)methyl)phenyl)pyridin-4-yl)phenyl)-2-methoxypyridin-3-yl)methyl)-4-methoxycyclohexan-1-amine] | 76.3 nM
COc1nc(-c2nccc(-c3cccc(NC(=O)c4cn(C)c(=O)n(C)c4=O)c3Cl)c2Cl)ccc1CNC[C@H](C)O [Example 739, (S)—N-(2-Chloro-3-(3-chloro-5′-(((2-hydroxypropyl)amino)methyl)-6′-methoxy-[2,2′-bipyridin]-4-yl)phenyl)-1,3-dimethyl-2,4-dioxo-1,2,3,4-tetrahydropyrimidine-5-carboxamide] | 1850 nM
COc1nc(-c2cccc(-c3ccnc(-c4ccc5c(CNC6CCN(C(C)=O)CC6)cn(C)c5c4)c3Cl)c2Cl)ccc1CNC1CCN(C(C)=O)CC1 [Cmpd 277, 1-(4-(((6-(3-(2-(3-(((1-acetylpiperidin-4-yl)amino)methyl)-1-methyl-1H-indol-6-yl)-3-chloropyridin-4-yl)-2-chlorophenyl)-2-methoxypyridin-3-yl)methyl)amino)piperidin-1-yl)ethan-1-one] | 170 nM
COc1cc(-c2nccc(-c3cccc4c3CC[C@@H]4Nc3nc(OC)c(CN4CC5(CNC(=O)C5)C4)nc3C(F)(F)F)c2Cl)ccc1CN1CC2(CNC(=O)C2)C1 [Example 366, (S)-2-(4-(3-Chloro-4-(1-((6-methoxy-5-((7-oxo-2,6-diazaspiro[3.4]octan-2-yl)methyl)-3-(trifluoromethyl)pyrazin-2-yl)amino)-2,3-dihydro-1H-inden-4-yl)pyridin-2-yl)-2-methoxybenzyl)-2,6-diazaspiro[3.4]octan-7-one] | 159 nM
COc1cc(-c2nccc(-c3cccc(-c4ccc(CNC[C@@H]5CCC(=O)N5)c(OC)n4)c3Cl)c2Cl)cc2c1CN(CCC1(O)CCC1)CC2 [Cmpd 51, (S)-5-((((6-(2-chloro-3-(3-chloro-2-(2-(2-(1-hydroxycyclobutyl)ethyl)-8-methoxy-1,2,3,4-tetrahydroisoquinolin-6-yl)pyridin-4-yl)phenyl)-2-methoxypyridin-3-yl)methyl)amino)methyl)pyrrolidin-2-one] | 74.5 nM

Now from value to compound:

EC50 | Structure (SMILES)
53.5 nM | COc1cc(-c2nccc(-c3cccc(-c4ccc(CNC[C@@H]5CCC(=O)N5)c(OC)n4)c3Cl)c2Cl)cc2c1CNCC2 [Cmpd 7, (S)-5-((((6-(2-chloro-3-(3-chloro-2-(8-methoxy-1,2,3,4-tetrahydroisoquinolin-6-yl)pyridin-4-yl)phenyl)-2-methoxypyridin-3-yl)methyl)amino)methyl)pyrrolidin-2-one]
53 nM | COc1nc(-c2ccnc(-c3cccc4c3CC[C@@H]4Oc3nc(OC)c(CNC[C@H](C)O)cc3C(F)(F)F)c2Cl)ccc1CN1CC2(CNC(=O)C2)C1 [Example 553, 2-((3′-Chloro-2′-((S)-1-((5-((((S)-2-hydroxypropyl)amino)methyl)-6-methoxy-3-(trifluoromethyl)pyridin-2-yl)oxy)-2,3-dihydro-1H-inden-4-yl)-6-methoxy-[2,4′-bipyridin]-5-yl)methyl)-2,6-diazaspiro[3.4]octan-7-one]
70 nM | COc1cc(-c2nccc(-c3cccc(-c4ccc(CNC[C@@H]5CCC(=O)N5)c(OC)n4)c3Cl)c2Cl)cc2c1CN(CCC1(O)CC1)CC2 [Cmpd 74, (S)-5-((((6-(2-chloro-3-(3-chloro-2-(2-(2-(1-hydroxycyclopropyl)ethyl)-8-methoxy-1,2,3,4-tetrahydroisoquinolin-6-yl)pyridin-4-yl)phenyl)-2-methoxypyridin-3-yl)methyl)amino)methyl)pyrrolidin-2-one]
39.2 nM | COc1nc(-c2ccnc(-c3cccc4c3CC[C@@H]4Oc3nc(OC)c(CNC[C@H](C)O)cc3C(F)(F)F)c2Cl)ccc1CNC[C@H](C)O [Example 253, (S)-1-(((3′-Chloro-2′-((S)-1-((5-((((S)-2-hydroxypropyl)amino)methyl)-6-methoxy-3-(trifluoromethyl)pyridin-2-yl)oxy)-2,3-dihydro-1H-inden-4-yl)-6-methoxy-[2,4′-bipyridin]-5-yl)methyl)amino)propan-2-ol]
31.4 nM | COc1cc(-c2nccc(-c3cccc(-c4ccc(CN5CC6(CNC(=O)C6)C5)c(OC)n4)c3Cl)c2F)ccc1CN1CC2(CNC(=O)C2)C1 [Example 324, 2-(4-(4-(2-chloro-3-(6-methoxy-5-((7-oxo-2,6-diazaspiro[3.4]octan-2-yl)methyl)pyridin-2-yl)phenyl)-3-fluoropyridin-2-yl)-2-methoxybenzyl)-2,6-diazaspiro[3.4]octan-7-one]
22.8 nM | COc1cc(-c2nccc(-c3cccc(-c4ccc(CN5CC6(CNC(=O)C6)C5)c(OC)n4)c3Cl)c2Cl)ccc1CNC1CCOCC1 [Example 495, 2-((6-(2-Chloro-3-(3-chloro-2-(3-methoxy-4-(((tetrahydro-2H-pyran-4-yl)amino)methyl)phenyl)pyridin-4-yl)phenyl)-2-methoxypyridin-3-yl)methyl)-2,6-diazaspiro[3.4]octan-7-one]
61.3 nM | COc1cc(-c2nccc(-c3cccc(-c4ccc(CN5CCC(OC)CC5)c(OC)n4)c3Cl)c2Cl)ccc1CN1CCC(OC)CC1 [Example 447, 3-Chloro-4-(2-chloro-3-(6-methoxy-5-((4-methoxypiperidin-1-yl)methyl)pyridin-2-yl)phenyl)-2-(3-methoxy-4-((4-methoxypiperidin-1-yl)methyl)phenyl)pyridine]
65.1 nM | COc1nc(-c2cccc(-c3ccnc(-c4ccc5c(CNC[C@@H]6CCO6)nn(C)c5c4)c3Cl)c2Cl)ccc1CNC[C@@H]1CCC(=O)N1 [Example 235, (S)-5-((((6-(2-Chloro-3-(3-chloro-2-(1-methyl-3-(((((S)-oxetan-2-yl)methyl)amino)methyl)-1H-indazol-6-yl)pyridin-4-yl)phenyl)-2-methoxypyridin-3-yl)methyl)amino)methyl)pyrrolidin-2-one]
73.8 nM | COc1nc(-c2cccc(-c3ccnc(-c4cnc5c(CN6CC7(CNC(=O)C7)C6)cn(C)c5c4)c3Cl)c2Cl)ccc1CNC[C@@H]1CCC(=O)N1 [Example 378, (S)-2-((6-(3-Chloro-4-(2-chloro-3-(6-methoxy-5-((((5-oxopyrrolidin-2-yl)methyl)amino)methyl)pyridin-2-yl)phenyl)pyridin-2-yl)-1-methyl-1H-pyrrolo[3,2-b]pyridin-3-yl)methyl)-2,6-diazaspiro[3.4]octan-7-one]

Each compound was assayed against PD-L1 His protein / PD-1 Fc protein (Homo sapiens (Human), UniProt Q9NZQ7) (assay: HTRF Assay (PD-1/PD-L1 interaction)). Conditions: PD-L1 His 6 nM, PD-1 Fc 6 nM.
Type: binding

Chain of PD-L1 His protein / PD-1 Fc protein (Q9NZQ7 19-238): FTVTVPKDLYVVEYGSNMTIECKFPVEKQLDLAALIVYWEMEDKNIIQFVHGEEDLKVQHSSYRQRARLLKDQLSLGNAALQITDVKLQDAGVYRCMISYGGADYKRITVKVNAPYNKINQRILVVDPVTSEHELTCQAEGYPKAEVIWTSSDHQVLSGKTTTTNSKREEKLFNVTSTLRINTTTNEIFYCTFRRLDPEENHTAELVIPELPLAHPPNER

Structure (SMILES) | IC50
COc1cc(-c2nccc(-c3cccc(-c4ccc(CN5CC6(CNC(=O)C6)C5)c(OC)n4)c3Cl)c2Cl)cc2c1CN(CC1(C(=O)O)CC1)CC2 [Example 297, 1-((6-(3-Chloro-4-(2-chloro-3-(6-methoxy-5-((7-oxo-2,6-diazaspiro[3.4]octan-2-yl)methyl)pyridin-2-yl)phenyl)pyridin-2-yl)-8-methoxy-3,4-dihydroisoquinolin-2(1H)-yl)methyl)cyclopropane-1-carboxylic acid] | 0.29 nM
COc1nc(-c2ccnc(-c3cccc4c3CC[C@@H]4Oc3nc(OC)c(CNC[C@@H]4CCC(=O)N4)cc3C(F)(F)F)c2Cl)ccc1CNC1CCN(C(C)=O)CC1 [Example 544, (S)-5-((((6-(((S)-4-(5-(((1-acetylpiperidin-4-yl)amino)methyl)-3′-chloro-6-methoxy-[2,4′-bipyridin]-2′-yl)-2,3-dihydro-1H-inden-1-yl)oxy)-2-methoxy-5-(trifluoromethyl)pyridin-3-yl)methyl)amino)methyl)pyrrolidin-2-one] | 0.8 nM
